Source: patent publication US20090170867A1, “TRPV1 ANTAGONISTS INCLUDING SULFONAMIDE SUBSTITUENT AND USES THEREOF” (Shionogi & Co., Ltd., priority 2007, published 2009)

Columns and labels:
human TRPV1 [1] = target: T1, human TRPV1 (Homo sapiens, UniProt Q8NER1); assay: Capsaicin-based assay, Protocol 2 (TRPV1/CHO cells, Fluo-4, FLIPR); format: cell-based; settings: capsaicin 100 nM final, mean ± SEM, number of trials in parentheses, read-out: TRPV1 IC50 Potency, Human Capsaicin CHO (hCAP-CHO)
T1 construct: using primers designed surrounding the complete hTRPV1 open reading frame; expressed in transfected cells; host or cells: CHO-K1 cells stably transfected with pcDNA3.1(-)-hVR1 plasmid
T1 sequence (Q8NER1 whole entry): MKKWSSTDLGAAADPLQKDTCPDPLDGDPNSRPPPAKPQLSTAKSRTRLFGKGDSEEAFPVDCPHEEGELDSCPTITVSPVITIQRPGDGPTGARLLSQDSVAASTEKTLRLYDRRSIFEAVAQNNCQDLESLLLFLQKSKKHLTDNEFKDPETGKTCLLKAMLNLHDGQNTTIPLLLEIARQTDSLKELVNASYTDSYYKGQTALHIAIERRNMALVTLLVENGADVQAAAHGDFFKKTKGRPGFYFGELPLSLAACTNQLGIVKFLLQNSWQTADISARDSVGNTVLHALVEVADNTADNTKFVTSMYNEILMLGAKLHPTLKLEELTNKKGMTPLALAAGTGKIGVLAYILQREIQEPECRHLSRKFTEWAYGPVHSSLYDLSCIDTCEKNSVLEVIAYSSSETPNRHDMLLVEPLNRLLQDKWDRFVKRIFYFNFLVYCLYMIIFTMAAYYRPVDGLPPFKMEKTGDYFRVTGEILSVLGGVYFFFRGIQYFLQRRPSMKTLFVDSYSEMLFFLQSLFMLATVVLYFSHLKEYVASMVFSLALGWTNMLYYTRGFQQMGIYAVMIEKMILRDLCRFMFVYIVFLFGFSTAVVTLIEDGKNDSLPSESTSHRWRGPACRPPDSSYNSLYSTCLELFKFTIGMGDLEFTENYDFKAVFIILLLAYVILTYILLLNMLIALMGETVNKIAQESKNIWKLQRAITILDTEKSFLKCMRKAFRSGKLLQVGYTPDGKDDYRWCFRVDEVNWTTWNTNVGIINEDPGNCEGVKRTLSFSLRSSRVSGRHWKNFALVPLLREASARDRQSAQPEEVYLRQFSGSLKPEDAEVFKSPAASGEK
From the text: The TRPV1/CHO cell line was generated as described below. […] The resulting PCR products were purified from agarose gels using Gel Band Purification Kit (GE Healthcare Bioscience) and were subcloned into pCR-Blunt vector (Invitrogen). The cloned cDNA was fully sequenced using a fluorescent dye-terminator reagent (BigDye Terminator ver3.1 Cycle Sequencing Kit, Applied Biosystems) and ABI Prism 3100 genetic analyzer (Applied Biosystems). The pCR-Blunt vector containing the hTRPV1 cDNA was subjected to restriction digestion with EcoRI. The restriction fragment was subcloned into expression vector pcDNA3.1 (-) (Invitrogen) and named pcDNA3.1 (-)-hVR1 plasmid. The sequence of the cDNA encoding TRPV1 is available at GenBank accession number AJ277028. […] The cells were transfected with the pcDNA3.1 (-)-hVR1 plasmid using FuGENE6 (Roche) according to the manufacturer's protocol. 24 hr after transfection, neomycin-resistant cells were selected using 1 mg/mL G418 (Nacalai Tesque). […] The cells expressing hTRPV1 were cultured in the growth medium supplemented with 1 mg/mL G418. […] Subsequently, the cells were loaded by incubation in 0.1 mL of wash buffer containing Fluo-4 at 3 μM final concentration. After 1 hour, the cells were washed twice with 0.2 mL wash buffer and resuspended in 0.1 mL wash buffer. The plates were then transferred to a Fluorescence Imaging Plate Reader (Molecular Devices). Fluorescence intensity was monitored for 15 seconds to establish a baseline. […] The final concentration of the compound was adjusted to range from 100 μM to 1.5625 μM. […] Data were collected over the entire time course and analyzed using Excel and the curve-fitting formula GraphPad Prism.

human TRPV1 [2] = target: T1, human TRPV1; assay: pH-based assay, Protocol 2 (TRPV1/CHO cells, Fura-2 AM, FDSS-3000, pH 5.0-5.1); format: cell-based; settings: H2SO4 agonist, mean ± SEM, number of trials in parentheses, read-out: TRPV1 IC50 Potency, Human pH CHO (hpH-CHO)
From the text: For Protocol 2, a Chinese Hamster Ovary cell line (CHO) that has been engineered to constitutively express human recombinant TRPV1 was used (TRPV1/CHO cells). The TRPV1/CHO cell line was generated as described below.
The resulting PCR products were purified from agarose gels using Gel Band Purification Kit (GE Healthcare Bioscience) and were subcloned into pCR-Blunt vector (Invitrogen). The cloned cDNA was fully sequenced using a fluorescent dye-terminator reagent (BigDye Terminator ver3.1 Cycle Sequencing Kit, Applied Biosystems) and ABI Prism 3100 genetic analyzer (Applied Biosystems). The pCR-Blunt vector containing the hTRPV1 cDNA was subjected to restriction digestion with EcoRI. The restriction fragment was subcloned into expression vector pcDNA3.1 (−) (Invitrogen) and named pcDNA3.1 (−)-hVR1 plasmid. The sequence of the cDNA encoding TRPV1 is available at GenBank accession number AJ277028.
CHO-K1 cells were maintained in growth medium consisting of α-MEM, 10% FBS (Hyclone), and 100 IU/mL of penicillin-100 μg/mL of streptomycin mixed solution (Nacalai Tesque, Japan) at 37° C. in an environment of humidified 95% air and 5% CO2. The cells were transfected with the pcDNA3.1 (−)-hVR1 plasmid using FuGENE6 (Roche) according to the manufacturer's protocol. 24 hr after transfection, neomycin-resistant cells were selected using 1 mg/mL G418 (Nacalai Tesque). After 2 weeks, individual colonies were picked, expanded, and screened for the expression of hTRPV1 in the capsaicin-induced Ca^2+ influx assay (see below) with a FLIPR (Molecular Devices). A clone with the largest Ca^2+ response to capsaicin was selected and re-cloned by the same procedure. The cells expressing hTRPV1 were cultured in the growth medium supplemented with 1 mg/mL G418.
TRPV1/CHO cells were seeded in the 96-well clear-bottom black-wall plate (Nunc) at densities of 1-2×10^4 cells/well and grown in 100 μL of culture medium (alpha-MEM supplemented with 10% FBS, 20 mM HEPES, 1 mg/mL geneticin and 1% antibiotic-antimycotic mixed stock solution) for 1-2 days before the experiment.
Different agonist solutions with sulfuric acid concentrations of from 15 mM to 18 mM (see FIG. 1) were prepared by diluting 1M sulfuric acid with measuring buffer. The different sulfuric acid concentrations in the agonist solutions were selected such that a 1:4 dilution would result in a final sulfuric acid concentration of between 3.0 mM to 3.6 mM, respectively, as indicated in FIG. 1.
The cells were stimulated using 3.0 mM (well number B1-6), 3.1 mM (C1-6), 3.2 mM (D1-6), 3.3 mM (E1-6), 3.4 mM (F1-6), 3.5 mM (G1-6), or 3.6 mM (H1-6) H2SO4 or pH 7.2 measuring buffer without H2SO4 (A1-6) (FIG. 2).
(1) Culture medium was removed using an 8-channel-pipette (Rainin, USA) from the 96-well plate and the wells were refilled with 100 μL of loading buffer (20 mM HEPES, 115 mM NaCl, 5.4 mM KCl, 0.8 mM MgCl2, 1.8 mM CaCl2, 13.8 mM D-glucose, 2.5 mM probenecid, pH 7.4) containing 5 μM Fura-2 AM (Dojin, Japan).
(2) The 96-well plate was incubated at 37° C. for 45 min.
(3) The loading buffer was removed from each well. The cells were subsequently washed twice with 150 μL of measuring buffer (20 mM HEPES, 115 mM NaCl, 5.4 mM KCl, 0.8 mM MgCl2, 5.0 mM CaCl2, 13.8 mM D-glucose, 0.1% BSA, pH 7.4) (no probenecid). The wells were then refilled with 80 μL of measuring buffer.
(4) After an incubation at 4° C. for 15 min, the 96-well plate was transferred to FDSS-3000 (Hamamatsu Photonics, Japan).
(5) The Fura-2 fluorescent intensity was monitored at a wavelength of 340 nm and at 380 nm, respectively, at a rate of 0.5 Hz for a total of 240 seconds.

Row | SMILES | IC50 (human TRPV1 [1]) [nM] | IC50 (human TRPV1 [2]) [nM]
1 | O=C(Nc1ccc(C(F)(F)F)cn1)N1CC=C(c2ncccc2Cl)CC1 [Compound 201] | 131 | 185
2 | O=C(Nc1ccc(C(F)(F)F)c(F)c1)N1CC=C(c2ncccc2F)CC1 [Compound 202] | 182 | 590
3 | O=C(Nc1ccc(C(F)(F)F)cc1)N1CCC(F)(c2ncccc2Cl)CC1 [Compound 203] | 90.2 | 51.2
4 | O=C(Nc1ccc(C(F)(F)F)cn1)N1CCC(F)(c2ncccc2Cl)CC1 [Compound 204] | 167 | 154
5 | O=C(Nc1nc2ccc(F)cc2s1)N1CCC(F)(c2ncccc2Cl)CC1 [Compound 206] | 508 | 1460
6 | COCc1cnc(C2=CCN(C(=O)Nc3ccc(S(=O)(=O)C(F)(F)F)cc3)CC2)c(Cl)c1 [Compound A3] | 414 ± 99.6 | 310 ± 38.9
7 | O=C(Nc1ccc(C(F)(F)F)c(F)c1)N1CCC(F)(c2ncc([C@@H](O)CO)cc2F)CC1 [Compound A6] | 49.8 ± 12.1 | 9 ± 0.8
8 | O=C(Nc1ccc(C(F)(F)F)cc1)N1CCC(F)(c2ncc([C@@H](O)CO)cc2Cl)CC1 [Compound B1] | 7.81 ± 1.2 | 7.4 ± 0.3
9 | CC(C)c1cc(NC(=O)N2CC=C(c3ncc([C@H](O)CO)cc3Cl)CC2)ccc1OC(F)(F)F [Compound B2] | 77.6 ± 12 | 40.5
10 | CC(C)(O)c1cnc(C2=CCN(C(=O)Nc3nc4ccc(Cl)cc4s3)CC2)c(Cl)c1 [Compound B3] | 537 ± 62 | 106 ± 11.4
11 | O=C(Nc1ccc(S(=O)(=O)C(F)(F)F)cc1)N1CCC(F)(c2ncc([C@@H](O)CO)cc2Cl)CC1 [Compound B4] | 57.2 ± 11.6 | 5.8 ± 1.3
12 | O=C(Nc1ccc(Br)c(C(F)(F)F)c1)N1CCC(F)(c2ncc([C@H](O)CO)cc2Cl)CC1 [Compound B5] | 106 ± 21 | 15 ± 3
13 | CC(O)c1cnc(C2=CCN(C(=O)Nc3ccc(C(F)(F)F)cn3)CC2)c(Cl)c1 (stereo not drawn) [Compound B6] | 922 ± 205 | 362 ± 69.1
14 | O=C(Nc1ccc(S(=O)(=O)C(F)(F)F)cc1)N1CC=C(c2ncc(CO)cc2Cl)CC1 [Compound C2] | 98.7 ± 33.9 | 41.8 ± 3.8
15 | O=C(Nc1nc2ccc(Cl)cc2s1)N1CC=C(c2ncc([C@H](O)CO)cc2F)CC1 [Compound C4] | 66.2 ± 7.5 | 18.6 ± 2.8
16 | COc1cc(NC(=O)N2CCC(F)(c3ncc([C@H](O)CO)cc3F)CC2)ccc1C(F)(F)F [Compound C5] | 108 ± 38.4 | 39.9 ± 7.9
17 | CC(C)(C)c1ccc(NC(=O)N2CC=C(c3ncc([C@H](O)CO)cc3F)CC2)cc1 [Compound D1] | 16.5 ± 4.1 | 0.9
18 | O=C(Nc1ccc(C(F)(F)F)c(Cl)c1)N1CC=C(c2ncc([C@H](O)CO)cc2Cl)CC1 [Compound D2, (S)-3-Chloro-5-(1,2-dihydroxy-ethyl)-3′,6′-dihydro-2′H-[2,4′]bipyridinyl-1′-carboxylic acid (3-chloro-4-trifluoromethyl-phenyl)amide] | 85.3 ± 20.7 | 10.8 ± 0.9
19 | O=C(Nc1ccc(C(F)(F)F)cn1)N1CCC(F)(c2ncc([C@@H](O)CO)cc2Cl)CC1 [Compound D4] | 69.6 ± 6.9 | 54.8
20 | CC(C)(O)c1cnc(C2=CCN(C(=O)Nc3ccc(C(F)(F)F)c(F)c3)CC2)c(Cl)c1 [Compound E3] | 671 ± 133 | 141 ± 23.1
21 | O=C(Nc1ccc(Cl)c(C(F)(F)F)c1)N1CCC(F)(c2ncc([C@H](O)CO)cc2F)CC1 [Compound E5] | 133 ± 28.5 | 33.8
22 | O=C(Nc1nc2ccc(F)cc2s1)N1CCC(F)(c2ncc([C@@H](O)CO)cc2Cl)CC1 [Compound H4] | 176 ± 28.4 | 97 ± 9.9
23 | CC(C)(C)c1ccc(NC(=O)N2CC=C(c3ncc([C@H](O)CO)cc3Cl)CC2)cc1 [Compound I1, (S)-3-Chloro-5-(1,2-dihydroxy-ethyl)-3′,6′-dihydro-2′H-[2,4′]bipyridinyl-1′-carboxylic acid (4-tert-butyl-phenyl)amide] | 33.8 ± 9.1 | 1.1 ± 0.2

Further lines, results first:

Row | IC50 (human TRPV1 [1]) [nM] | IC50 (human TRPV1 [2]) [nM] | SMILES
24 | 916 ± 306 | 585 | COCc1cnc(C2=CCN(C(=O)Nc3ccc(C(F)(F)F)cc3)CC2)c(Cl)c1 [Compound F3]
25 | 86.7 ± 18.9 | 32.5 ± 2.4 | O=C(Nc1ccc(C(F)(F)F)cc1)N1CC=C(c2ncc(C(F)(F)CO)cc2Cl)CC1 [Compound F4, 4-(3-chloro-5-(1,1-difluoro-2-hydroxyethyl)pyridin-2-yl)-N-(4-(trifluoromethyl)phenyl)-5,6-dihydropyridine-1(2H)-carboxamide]
26 | 31.3 ± 8.8 | 16.4 | O=C(Nc1ccc(C(F)(F)F)cn1)N1CCC(F)(c2ncc([C@H](O)CO)cc2Cl)CC1 [Compound G1]
27 | 400 ± 10.6 | 108 | O=C(Nc1ccc(Cl)c(C(F)(F)F)c1)N1CCC(F)(c2ncc([C@@H](O)CO)cc2F)CC1 [Compound G5]
28 | 520 ± 88.6 | 516 ± 99.2 | CN1CCCc2ccc(NC(=O)N3CCN(c4ncc([C@H](O)CO)cc4Cl)CC3)cc21 [Compound H5]
29 | 122 ± 7.1 | 18 ± 1 | CC(C)Oc1ccc(NC(=O)N2CC=C(c3ncc(CO)cc3Cl)CC2)cc1C(F)(F)F [Compound I2]
30 | 709 ± 94.1 | 118 ± 27.5 | Cc1ccc(NC(=O)N2CC=C(c3ncc([C@H](O)CO)cc3Cl)CC2)cc1C(F)(F)F [Compound I5]
31 | 34.5 ± 17.5 | 18 | O=C(Nc1ccc(C(F)(F)F)c(F)c1)N1CC=C(c2ncc([C@H](O)CO)cc2F)CC1 [Compound J1]
32 | 35.1 ± 8.8 | 39.5 | O=C(Nc1ccc(C(F)(F)F)cn1)N1CC=C(c2ncc([C@H](O)CO)cc2Cl)CC1 [Compound K1]
33 | 141 ± 41.9 | 47.2 ± 6.7 | O=C(Nc1ccc(Cl)c(C(F)(F)F)c1)N1CC=C(c2ncc([C@H](O)CO)cc2F)CC1 [Compound K2]
